Results as given in patent US20170304388A1, “NEW INDICATION OF CARDIOVASCULAR DRUGS FOR PREPARATION OF CANCER INHIBITION PHARMACEUTICAL COMPOSITION” (LAUNX BIOMEDICAL CO., LTD., priority 2014, published 2017).

Columns and labels:
Format in all cases: cell-based
BxPC-3 = experiment: Cell viability analysis (WST-1), BxPC-3; settings: Homo sapiens, BXPC-3, 72 h, Table 4, repeated experiments, drug 10 μM, read-out: survival rate (viability) of cancer cells, BxPC-3
Experimental: (§1) Subculture the different types of cancer cells. The cancer cells includes lung cancer, gastric cancer, hepatic cancer, colon cancer, skin cancer, cervical cancer, prostate cancer, bladder cancer, breast cancer, leukemia, pancreatic cancer, ovarian cancer, tongue cancer, osteosarcoma, and renal cancer. The cell numbers were counted and reseed as 2×10^6 in cell culture plate/flask. Then, the culture medium for culturing the cell lines was added to a volume of 10 ml, and the cells were cultured for 2-3 days. Then, the cells were suspended for loading into 96-well plates. The cell number was 3000 cells and the volume of the culture medium was 100 ul each well.
(§2) Removing the original culture medium from 96-well plate. Then add 100 μl of commercially drug at a concentration of 10 μM per well. After 72 hours, add the diluted WST-1 reagent to the well with 100 μl/well, and the diluted WST-1 reagent was acquired from the dilution of 9:1 medium and WST-1 stock reagent. Finally, the total volume of each well are 200 μl/well. Culture the 96-well plate at 37° C. for 30 to 90 minutes. Detecting and calculating the survival rate of each cancer cells with an ELISA reader at OD450 nm. The lower viability of cancer cells represents better inhibition effect via the drugs. Otherwise, the higher viability of cancer cells represents worse inhibition effect via the drugs.
(§3) According to the above mentioned cardiovascular drugs for cancer growth inhibition in Table 3, the inventors took the repeat experiments for the cardiovascular drugs to check the growth inhibitory effects of cancer cells by the cardiovascular drugs. […] 4.

U2OS = experiment: Cell viability analysis (WST-1), U2OS; settings: Homo sapiens, U2OS, 72 h, Table 4, repeated experiments, drug 10 μM, read-out: survival rate (viability) of cancer cells, U2OS
Experimental: as §1, §2, §3

[1] = tested on: HeLa (Cervix Adenocarcinoma); experiment: Cell viability analysis (WST-1), HeLa; settings: Table 4, repeated experiments, drug 10 μM; for viability at 10 µM: Homo sapiens, HeLa, 72 h, WST-1, read-out: survival rate (viability) of cancer cells, HeLa
[2] = tested on: A549 (Lung Adenocarcinoma); experiment: Cell viability analysis (WST-1), A549; settings: Table 4, repeated experiments, drug 10 μM; for viability at 10 µM: Homo sapiens, A549, 72 h, WST-1, read-out: survival rate (viability) of cancer cells, A549
786-O = experiment: Cell viability analysis (WST-1), 786-O; settings: Homo sapiens, 786-0, 72 h, Table 4, repeated experiments, drug 10 μM, read-out: survival rate (viability) of cancer cells, 786-O
Experimental: as §1, §2, §3

[3] = tested on: HepG2 (Hepatocellular Carcinoma); experiment: Cell viability analysis (WST-1), HepG2; settings: Table 4, repeated experiments, drug 10 μM; for viability at 10 µM: Homo sapiens, HepG2, 72 h, WST-1, read-out: survival rate (viability) of cancer cells, HepG2
Hep3B = experiment: Cell viability analysis (WST-1), Hep3B; settings: Table 4, repeated experiments, drug 10 μM; for viability at 10 µM: Homo sapiens, Hep3B, 72 h, read-out: survival rate (viability) of cancer cells, Hep3B
Experimental: as §1, §2, §3

[4] = tested on: MKN-45 (Gastric Adenocarcinoma); experiment: Cell viability analysis (WST-1), MKN-45; settings: Homo sapiens, MKN-45, 72 h, Table 4, repeated experiments, drug 10 μM, WST-1, read-out: survival rate (viability) of cancer cells, MKN-45
[5] = tested on: PC3 (Prostate Adenocarcinoma); experiment: Cell viability analysis (WST-1), PC3; settings: Table 4, repeated experiments, drug 10 μM; for viability at 10 µM: 72 h, WST-1, read-out: survival rate (viability) of cancer cells, PC-3
C-33A = experiment: Cell viability analysis (WST-1), C-33A; settings: Table 4, repeated experiments, drug 10 μM; for viability at 10 µM: Homo sapiens, C-33-A, 72 h, read-out: survival rate (viability) of cancer cells, C-33A
Experimental: as §1, §2, §3

TOV-21G = experiment: Cell viability analysis (WST-1), TOV-21G; settings: Table 4, repeated experiments, drug 10 μM; for viability at 10 µM: Homo sapiens, TOV21G, 72 h, read-out: survival rate (viability) of cancer cells, TOV-21G
Experimental: as §1, §2, §3

[6] = tested on: LoVo (Colorectal Adenocarcinoma); experiment: Cell viability analysis (WST-1), LoVo; settings: Table 4, repeated experiments, drug 10 μM; for viability at 10 µM: Homo sapiens, LoVo, 72 h, WST-1, read-out: survival rate (viability) of cancer cells, LoVo
T24 = experiment: Cell viability analysis (WST-1), T24; settings: Homo sapiens, T-24, 72 h, Table 4, repeated experiments, drug 10 μM, read-out: survival rate (viability) of cancer cells, T24
Experimental: as §1, §2, §3

NIH-OVCAR-3 = experiment: Cell viability analysis (WST-1), NIH-OVCAR-3; settings: Table 4, repeated experiments, drug 10 μM; for viability at 10 µM: Homo sapiens, OVCAR-3, 72 h, read-out: survival rate (viability) of cancer cells, NIH-OVCAR-3
Experimental: as §1, §2, §3

MDA-MB231 = experiment: Cell viability analysis (WST-1), MDA-MB231; settings: Table 4, repeated experiments, drug 10 μM; for viability at 10 µM: Homo sapiens, MDA-MB-231, 72 h, read-out: survival rate (viability) of cancer cells, MDA-MB231
[7] = tested on: HCT116 (Colorectal Carcinoma); experiment: Cell viability analysis (WST-1), HCT116; settings: Table 4, repeated experiments, drug 10 μM; for viability at 10 µM: Homo sapiens, HCT-116, 72 h, WST-1, read-out: survival rate (viability) of cancer cells, HCT116
SAS = experiment: Cell viability analysis (WST-1), SAS; settings: 72 h, Table 4, repeated experiments, drug 10 μM, read-out: survival rate (viability) of cancer cells, SAS
Experimental: as §1, §2, §3

[8] = tested on: H1650 (Lung Adenocarcinoma); experiment: Cell viability analysis (WST-1), H1650; settings: Table 4, repeated experiments, drug 10 μM; for viability at 10 µM: Homo sapiens, NCI-H1650, 72 h, WST-1, read-out: survival rate (viability) of cancer cells, H1650
BCC = experiment: Cell viability analysis (WST-1), BCC; settings: Table 4, repeated experiments, drug 10 μM; for viability at 10 µM: BCC, 72 h, read-out: survival rate (viability) of cancer cells, BCC
[9] = tested on: A375 (Amelanotic Melanoma); experiment: Cell viability analysis (WST-1), A375; settings: Table 4, repeated experiments, drug 10 μM; for viability at 10 µM: Homo sapiens, A-375, 72 h, WST-1, read-out: survival rate (viability) of cancer cells, A375
[10] = tested on: AGS (Gastric Adenocarcinoma); experiment: Cell viability analysis (WST-1), AGS; settings: 72 h, Table 4, repeated experiments, drug 10 μM, WST-1, read-out: survival rate (viability) of cancer cells, AGS
AsPC-1 = experiment: Cell viability analysis (WST-1), AsPC-1; settings: Table 4, repeated experiments, drug 10 μM; for viability at 10 µM: Homo sapiens, ASPC1, 72 h, read-out: survival rate (viability) of cancer cells, AsPC-1
Experimental: as §1, §2, §3

[11] = tested on: TSGH-8301 (Urinary Bladder Carcinoma); experiment: Cell viability analysis (WST-1), TSGH-8301; settings: 72 h, Table 4, repeated experiments, drug 10 μM, WST-1, read-out: survival rate (viability) of cancer cells, TSGH-8301
[12] = tested on: MCF7 (Mammary Gland, Adenocarcinoma); experiment: Cell viability analysis (WST-1), MCF7; settings: Table 4, repeated experiments, drug 10 μM; for viability at 10 µM: Homo sapiens, MCF7, 72 h, WST-1, read-out: survival rate (viability) of cancer cells, MCF-7

Compound	viability at 10 µM (BxPC-3) [%]	viability at 10 µM (U2OS) [%]	viability at 10 µM (786-O) [%]	viability at 10 µM [4] [%]	viability at 10 µM (T24) [%]	viability at 10 µM (SAS) [%]	viability at 10 µM [10] [%]	viability at 10 µM [11] [%]	viability at 10 µM [1] [%]	viability at 10 µM [2] [%]	viability at 10 µM [3] [%]	viability at 10 µM (Hep3B) [%]	viability at 10 µM [5] [%]	viability at 10 µM (C-33A) [%]	viability at 10 µM (TOV-21G) [%]	viability at 10 µM [6] [%]	viability at 10 µM (NIH-OVCAR-3) [%]	viability at 10 µM (MDA-MB231) [%]	viability at 10 µM [7] [%]	viability at 10 µM [8] [%]	other results
CCOC(=O)C1=C(COCCN)NC(C)=C(C(=O)OC)C1c1ccccc1Cl (stereo not drawn) [Amlodipine (Norvase), Amlodipine]	86	78.9	81.4	88.2	96.6	99.2	16.5	36.2	–	–	–	–	–	–	–	–	–	–	–	–	survival rate (viability) of cancer cells, HeLa ([1]; 72 hours, WST-1): 86.96; survival rate (viability) of cancer cells, A549 ([2]; 72 hours, WST-1): 89.22; survival rate (viability) of cancer cells, HepG2 ([3]; 72 hours, WST-1): 71.76; survival rate (viability) of cancer cells, Hep3B (Hep3B; 72 hours): 99.22; survival rate (viability) of cancer cells, PC-3 ([5]; 72 hours, WST-1): 85.88; survival rate (viability) of cancer cells, C-33A (C-33A; 72 hours): 38.18; survival rate (viability) of cancer cells, TOV-21G (TOV-21G; 72 hours): 61.32; survival rate (viability) of cancer cells, LoVo ([6]; 72 hours, WST-1): 90.33; survival rate (viability) of cancer cells, NIH-OVCAR-3 (NIH-OVCAR-3; 72 hours): 90.31; survival rate (viability) of cancer cells, MDA-MB231 (MDA-MB231; 72 hours): 87.55; survival rate (viability) of cancer cells, HCT116 ([7]; 72 hours, WST-1): 91.96; survival rate (viability) of cancer cells, H1650 ([8]; 72 hours, WST-1): 72.01; survival rate (viability) of cancer cells, BCC (BCC; 72 hours): 74.9299; survival rate (viability) of cancer cells, A375 ([9]; 72 hours, WST-1): 81.58; survival rate (viability) of cancer cells, AsPC-1 (AsPC-1; 72 hours): 89.04; survival rate (viability) of cancer cells, MCF-7 ([12]; 72 hours, WST-1): 63.42
CC(C)n1c(/C=C/C(O)CC(O)CC(=O)O)c(-c2ccc(F)cc2)c2ccccc21 (stereo not drawn) [Fluvastatin sodium (Lescol), Fluvastatin sodium]	79.1	91.2	23.6	65.3	71.8	81.5	52	78.2	54.3	98.8	104	109	32.1	89.5	50.5	100	84.7	43	55	73.1	viability at 10 µM (BCC): 27%; viability at 10 µM [9]: 21.8%; viability at 10 µM (AsPC-1): 83.6%; viability at 10 µM [12]: 82.5%
COC(=O)C1=C(C)NC(C)=C(C(=O)OCC(C)C)C1c1ccccc1[N+](=O)[O-] (stereo not drawn) [Nisoldipine (Sular), Nisoldipine]	75.6	69.1	49.5	98	67.8	48.8	64.7	77.9	76.9	48.9	95.5	130	98.9	66	44.4	76.9	68.1	74.1	77.4	70	viability at 10 µM (BCC): 58.8%; viability at 10 µM [9]: 51.5%; viability at 10 µM (AsPC-1): 78.8%; viability at 10 µM [12]: 86.6%
C[C@@H]1O[C@@H](O[C@H]2C[C@@H](O)[C@]3(CO)[C@H]4[C@H](O)C[C@]5(C)[C@@H](C6=CC(=O)OC6)CC[C@]5(O)[C@@H]4CC[C@]3(O)C2)[C@H](O)[C@H](O)[C@H]1O [Ouabain]	27	22.8	14.5	53	17.6	20.2	16.6	43.6	23.1	15.1	38.1	33.4	25.8	35.5	15.9	39.7	42.3	44.5	15.9	38.7	viability at 10 µM (BCC): 25.6%; viability at 10 µM [9]: 18.4%; viability at 10 µM (AsPC-1): 20.1%; viability at 10 µM [12]: 29.1%
